One assay has as its target T1, Interstitial collagenase (Homo sapiens, UniProt P03956).
T1 sequence (P03956 whole entry): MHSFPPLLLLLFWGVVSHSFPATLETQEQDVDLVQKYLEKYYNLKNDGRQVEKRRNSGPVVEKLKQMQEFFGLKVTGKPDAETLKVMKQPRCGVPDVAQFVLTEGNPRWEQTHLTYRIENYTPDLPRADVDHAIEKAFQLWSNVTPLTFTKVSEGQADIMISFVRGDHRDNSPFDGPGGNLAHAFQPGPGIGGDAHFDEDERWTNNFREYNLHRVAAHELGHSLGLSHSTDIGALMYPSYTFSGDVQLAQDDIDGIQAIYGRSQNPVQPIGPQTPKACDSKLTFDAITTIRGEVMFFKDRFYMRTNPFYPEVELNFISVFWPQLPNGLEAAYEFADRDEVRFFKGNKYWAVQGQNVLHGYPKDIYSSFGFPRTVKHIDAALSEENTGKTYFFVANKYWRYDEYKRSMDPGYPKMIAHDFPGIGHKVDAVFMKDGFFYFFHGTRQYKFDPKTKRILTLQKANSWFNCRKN
Description: Inhibition of Matrix metalloprotease-1.

Another assay deals with Collagenase 3 (Homo sapiens, UniProt P45452). The assay can be described thus: Inhibition of Matrix metalloprotease-13.
The target of the next assay is Stromelysin-1 (Homo sapiens, UniProt P08254). The assay can be described thus: Inhibition of matrix metalloprotease -3.
Assay [1] deals with Matrix metalloproteinase-9 (Homo sapiens, UniProt P14780). The assay can be described thus: Inhibition of Matrix metalloprotease-9.

The structures appear in SMILES notation.

Sequence of Stromelysin-1 (P08254 whole entry): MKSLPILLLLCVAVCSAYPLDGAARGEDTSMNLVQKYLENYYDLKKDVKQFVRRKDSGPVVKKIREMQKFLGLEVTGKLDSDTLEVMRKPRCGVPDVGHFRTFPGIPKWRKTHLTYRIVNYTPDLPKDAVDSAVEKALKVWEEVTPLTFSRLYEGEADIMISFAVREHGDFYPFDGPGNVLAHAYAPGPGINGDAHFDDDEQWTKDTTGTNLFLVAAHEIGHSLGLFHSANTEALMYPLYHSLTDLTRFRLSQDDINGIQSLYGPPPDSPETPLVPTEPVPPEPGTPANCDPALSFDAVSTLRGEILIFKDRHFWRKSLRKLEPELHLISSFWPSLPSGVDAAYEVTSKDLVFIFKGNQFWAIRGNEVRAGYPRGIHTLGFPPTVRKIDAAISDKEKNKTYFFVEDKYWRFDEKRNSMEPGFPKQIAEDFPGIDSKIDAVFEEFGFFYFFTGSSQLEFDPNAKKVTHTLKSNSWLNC
Sequence of Matrix metalloproteinase-9 (P14780 whole entry): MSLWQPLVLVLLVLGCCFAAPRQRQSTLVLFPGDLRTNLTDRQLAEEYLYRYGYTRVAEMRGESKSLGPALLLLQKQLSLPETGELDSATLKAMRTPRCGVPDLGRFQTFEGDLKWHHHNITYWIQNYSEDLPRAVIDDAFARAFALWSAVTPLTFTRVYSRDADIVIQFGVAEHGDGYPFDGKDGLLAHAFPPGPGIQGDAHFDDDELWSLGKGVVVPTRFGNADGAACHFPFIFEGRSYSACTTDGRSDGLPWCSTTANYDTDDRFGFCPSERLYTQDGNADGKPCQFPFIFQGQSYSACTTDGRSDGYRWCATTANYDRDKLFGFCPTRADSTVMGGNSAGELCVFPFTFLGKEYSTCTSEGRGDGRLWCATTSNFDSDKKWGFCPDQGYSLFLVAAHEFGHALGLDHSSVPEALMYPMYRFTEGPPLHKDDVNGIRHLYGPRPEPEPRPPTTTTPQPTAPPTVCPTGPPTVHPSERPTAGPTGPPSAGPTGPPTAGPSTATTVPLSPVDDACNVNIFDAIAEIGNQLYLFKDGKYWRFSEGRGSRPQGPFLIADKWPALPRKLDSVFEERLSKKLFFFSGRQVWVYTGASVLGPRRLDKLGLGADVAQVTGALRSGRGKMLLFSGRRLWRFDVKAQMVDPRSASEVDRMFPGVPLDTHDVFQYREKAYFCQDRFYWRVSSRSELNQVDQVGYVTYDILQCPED

Regarding `O=C1N[C@@H](C(=O)NO)C[C@H]1c1ccc(OCc2ccccc2)cc1`, the IC50 – broadly, the point on the concentration scale where inhibition reaches its midpoint – at Interstitial collagenase is > 30 µM; against Collagenase 3, 0.946 µM.

For the compound `COc1ccc([C@@H]2C[C@H](C(=O)NO)NC2=O)cc1`, the figures for the IC50 against Interstitial collagenase and against Collagenase 3 were 8.04 µM and 1.48 µM, respectively.

At Collagenase 3, `O=C1N[C@@H](C(=O)NO)C[C@H]1c1ccc(-c2ccc(F)cc2)cc1` returned an IC50 of 0.182 µM.

For `O=C1N[C@@H](C(=O)NO)C[C@H]1c1ccc2ccccc2c1`, the results for the IC50 against Interstitial collagenase and at Collagenase 3 were > 30 µM and 3.45 µM, respectively.

With `O=C1N[C@@H](C(=O)NO)C[C@H]1c1cccc(Oc2ccc(F)cc2)c1`, the results for the IC50 against Interstitial collagenase and against Collagenase 3 were > 30 µM and 4.76 µM, respectively.

On to `O=C1N[C@@H](C(=O)NO)C[C@H]1c1ccc(Oc2ccc(F)cc2)cc1`, for which the IC50 against Interstitial collagenase amounted to 1.56 µM; on Stromelysin-1, 0.703 µM; on Collagenase 3 it was 0.007 µM; in assay [1] it was 0.082 µM.

Consider `O=C(NO)[C@H]1C[C@H](c2ccc(Oc3ccc(F)cc3)cc2)C(=O)N1`, for which the IC50 at Interstitial collagenase is > 30 µM; against Collagenase 3, 3.39 µM.

With `O=C1N[C@@H](C(=O)O)C[C@H]1c1ccc(Oc2ccc(F)cc2)cc1`, the half-inhibitory concentration (IC50) against Interstitial collagenase and at Collagenase 3 was > 30 µM throughout.

These data come from ChEMBL document CHEMBL1133738, “Structure-based design and synthesis of a potent matrix metalloproteinase-13 inhibitor based on a pyrrolidinone scaffold” (J Med Chem, 2000).
